Experimental data from patent US20180064691A1, “Antibacterial compositions” (WOCKHARDT LIMITED, priority 2016, published 2018).

Tests used:
Test in all cases: quantitative drug diffusion assay (zone of inhibition, CLSI)
Assay type in all cases: cell-based
E. coli 7MP = tested on: E. coli 7MP; set-up: key: (R): Resistant; (I): Intermediate; (S): Sensitive (Interpretation as per CLSI recommendations, 2010); details: CLSI recommendations, 2010
From the text: (§1) Antibacterial activity of cefepime combination with tazobactam against various bacterial strains, including those bacteria that are known to product one or more beta-lactamase, was investigated in quantitative drug diffusion assay performed as per CLSI recommendations (Clinical and Laboratory Standards Institute (CLSI), performance Standards for Antimicrobial Susceptibility Testing, 20th Informational Supplement, M 100-S20, Volume 30, No. 1, 2010).
(§2) In a typical study, overnight grown bacterial cultures after appropriate dilution were seed inoculated in the molten, cooled agar media and plates poured. Antibacterial agents containing 6 mm diameter discs were placed on the top of the agar surface. Zone of inhibition based observation was performed after 16 to 18 hours of incubation at 35±2° C. in ambient air. These assays are routinely used in determining possibility of treating a particular infection using given antibacterial agent or a composition. In general, zone inhibition values in the sensitive (S) range indicate that the strain is susceptible to that antibacterial agent or composition. It is generally assumed that the antibacterial agent or the combination under consideration would not be effective in treating the infection, if the zone inhibition values are in the resistant (R) range.

E. coli B-89 = tested on: E. coli B-89; set-up: key: (R): Resistant; (I): Intermediate; (S): Sensitive (Interpretation as per CLSI recommendations, 2010); details: CLSI recommendations, 2010
From the text: as §1, §2

E. coli M50 = tested on: E. coli M50; set-up: key: (R): Resistant; (I): Intermediate; (S): Sensitive (Interpretation as per CLSI recommendations, 2010); details: CLSI recommendations, 2010
From the text: as §1, §2

E. coli S-112 = tested on: E. coli S-112; set-up: key: (R): Resistant; (I): Intermediate; (S): Sensitive (Interpretation as per CLSI recommendations, 2010); details: CLSI recommendations, 2010
From the text: as §1, §2

E. coli B-123 = tested on: E. coli B-123; set-up: key: (R): Resistant; (I): Intermediate; (S): Sensitive (Interpretation as per CLSI recommendations, 2010); details: CLSI recommendations, 2010
From the text: as §1, §2

E. coli M-138 = tested on: E. coli M-138; set-up: key to CLSI susceptibility interpretation: (R): Resistant; (I): Intermediate; (S): Sensitive (Interpretation as per CLSI recommendations, 2010)
From the text: as §1, §2

## CO/N=C(\C(=O)N[C@@H]1C(=O)N2C(C(=O)[O-])=C(C[N+]3(C)CCCC3)CS[C@H]12)c1csc(N)n1 [Cefepime, cefepime]
E. coli 7MP
  CLSI susceptibility interpretation: (I)
E. coli B-89
  CLSI susceptibility interpretation: (R)
E. coli M50
  CLSI susceptibility interpretation: (R)
E. coli S-112
  CLSI susceptibility interpretation: (I)
E. coli B-123
  CLSI susceptibility interpretation: (R)
E. coli M-138; 6 mm discs, 16 to 18 hours at 35±2° C.
  Zone of Inhibition: Nil
E. coli M-138; CLSI recommendations, 2010
  CLSI susceptibility interpretation: (R)
